In patent US20080161305A1, “C-Met Modulators and Methods of Use” (EXELIXIS, INC., priority 2005, published 2008):
pIC50: −log10 of the molar value.

What was measured:
Assay type in all cases: biochemical
[1] = target: c-Met (baculovirus expressed human c-Met kinase domain P948-S1343) (Homo sapiens, UniProt P08581); assay: c-Met Luciferase-Coupled Chemiluminescent Kinase assay (LCCA); details: 1 μM ATP, 10 nM c-Met
Method: (§1) Kinase activity and compound inhibition are investigated using one or more of the three assay formats described below. The ATP concentrations for each assay are selected to be close to the Michaelis-Menten constant (KM) for each individual kinase. Dose-response experiments are performed at 10 different inhibitor concentrations in a 384-well plate format. The data are fitted to the following four-parameter equation:
(§2) Y=Min+(Max−Min)/(1+(X/IC50)̂H)
(§3) where Y is the observed signal, X is the inhibitor concentration, Min is the background signal in the absence of enzyme (0% enzyme activity), Max is the signal in the absence of inhibitor (100% enzyme activity), IC50 is the inhibitor concentration at 50% enzyme inhibition and H represents the empirical Hill's slope to measure the cooperativity. Typically H is close to unity. c-Met Assay
c-Met biochemical activity was assessed using a Luciferase-Coupled Chemiluminescent Kinase assay (LCCA) format as described above. Again, kinase activity was measured as the percent ATP remaining following the kinase reaction. Remaining ATP was detected by luciferase-luciferin-coupled chemiluminescence. […] The mixture is incubated at ambient temperature for 2 hours after which 20 uL luciferase-luciferin mix is added and the chemiluminescent signal read using a Wallac Victor^2 reader. […]

[2] = target: T1, Flt-3 (baculovirus expressed human Flt-3 kinase domain R571-S993) (Homo sapiens, UniProt P36888); assay: flt-3 Luciferase-Coupled Chemiluminescent Kinase assay (LCCA); details: 5 μM ATP, 5 nM Flt-3; read-out: flt3 IC50
T1 construct: human Flt-3 kinase domain R571-S993; made in house
T1 sequence (P36888 571-993): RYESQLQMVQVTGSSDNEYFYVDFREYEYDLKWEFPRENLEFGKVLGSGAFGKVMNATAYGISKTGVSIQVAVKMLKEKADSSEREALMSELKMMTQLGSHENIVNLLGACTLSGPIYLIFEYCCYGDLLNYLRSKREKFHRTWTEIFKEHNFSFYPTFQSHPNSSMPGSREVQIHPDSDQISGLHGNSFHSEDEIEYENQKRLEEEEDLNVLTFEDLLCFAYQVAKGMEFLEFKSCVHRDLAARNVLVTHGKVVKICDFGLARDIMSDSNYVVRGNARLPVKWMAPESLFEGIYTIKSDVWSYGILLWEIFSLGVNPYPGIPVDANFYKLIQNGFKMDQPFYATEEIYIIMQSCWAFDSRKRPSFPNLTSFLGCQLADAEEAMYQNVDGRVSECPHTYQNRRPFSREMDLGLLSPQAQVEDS
Method: as §1, §2, §3
(§4) Biochemical activity for flt-3 was assessed using a Luciferase-Coupled Chemiluminescent Kinase assay (LCCA) format. Kinase activity was measured as the percent ATP remaining following the kinase reaction. Remaining ATP was detected by luciferase-luciferin-coupled chemiluminescence. […] The mixture is incubated at ambient temperature for 3 hours after which 20 uL luciferase-luciferin mix is added and the chemiluminescent signal read using a Wallac Victor^2 reader. […]

[3] = target: T2, Flt-4 (baculovirus expressed human Flt-4 kinase domain D725-R1298) (Homo sapiens, UniProt P35916); assay: flt-4 Alphascreen Tyrosine Kinase assay; details: 5 μM ATP, 1 nM Flt-4; read-out: flt4 IC50
T2 construct: human Flt-4 kinase domain D725-R1298; made in house
T2 sequence (P35916 725-1298 isoform P35916-1): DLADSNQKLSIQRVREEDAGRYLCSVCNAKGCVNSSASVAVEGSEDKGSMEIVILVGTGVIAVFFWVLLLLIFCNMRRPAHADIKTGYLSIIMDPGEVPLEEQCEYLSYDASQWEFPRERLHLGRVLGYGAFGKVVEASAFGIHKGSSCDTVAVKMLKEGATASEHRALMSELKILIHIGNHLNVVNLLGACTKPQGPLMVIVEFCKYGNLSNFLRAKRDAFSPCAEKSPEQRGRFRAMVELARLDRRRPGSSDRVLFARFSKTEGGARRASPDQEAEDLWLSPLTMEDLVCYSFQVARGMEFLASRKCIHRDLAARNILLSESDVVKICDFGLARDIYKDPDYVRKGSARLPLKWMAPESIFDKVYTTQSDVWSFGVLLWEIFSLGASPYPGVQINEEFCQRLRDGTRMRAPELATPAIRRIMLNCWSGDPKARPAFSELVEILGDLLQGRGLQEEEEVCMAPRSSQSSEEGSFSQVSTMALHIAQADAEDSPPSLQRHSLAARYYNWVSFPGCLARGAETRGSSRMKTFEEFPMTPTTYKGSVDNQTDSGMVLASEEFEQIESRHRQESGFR
Method: as §1, §2, §3
Biochemical activity for flt-4 was assessed using an Alphascreen Tyrosine Kinase protocol. AlphaScreen™ (Perkin Elmer) technology is a proximity assay employing microparticles. […] Substrate phosphorylation was measured by addition of donor/acceptor beads by chemiluminescence following donor-acceptor bead complex formation. […] After 2-16 hr incubation at ambient temperature plates were read using an AlphaQuest reader (Perkin Elmer). IC50 values correlate well with those determined by radiometric assays.

c-Kit kinase = c-Kit kinase (Homo sapiens, UniProt P10721); assay: c-Kit AlphaScreen assay
Sequence of c-Kit kinase (P10721 26-976): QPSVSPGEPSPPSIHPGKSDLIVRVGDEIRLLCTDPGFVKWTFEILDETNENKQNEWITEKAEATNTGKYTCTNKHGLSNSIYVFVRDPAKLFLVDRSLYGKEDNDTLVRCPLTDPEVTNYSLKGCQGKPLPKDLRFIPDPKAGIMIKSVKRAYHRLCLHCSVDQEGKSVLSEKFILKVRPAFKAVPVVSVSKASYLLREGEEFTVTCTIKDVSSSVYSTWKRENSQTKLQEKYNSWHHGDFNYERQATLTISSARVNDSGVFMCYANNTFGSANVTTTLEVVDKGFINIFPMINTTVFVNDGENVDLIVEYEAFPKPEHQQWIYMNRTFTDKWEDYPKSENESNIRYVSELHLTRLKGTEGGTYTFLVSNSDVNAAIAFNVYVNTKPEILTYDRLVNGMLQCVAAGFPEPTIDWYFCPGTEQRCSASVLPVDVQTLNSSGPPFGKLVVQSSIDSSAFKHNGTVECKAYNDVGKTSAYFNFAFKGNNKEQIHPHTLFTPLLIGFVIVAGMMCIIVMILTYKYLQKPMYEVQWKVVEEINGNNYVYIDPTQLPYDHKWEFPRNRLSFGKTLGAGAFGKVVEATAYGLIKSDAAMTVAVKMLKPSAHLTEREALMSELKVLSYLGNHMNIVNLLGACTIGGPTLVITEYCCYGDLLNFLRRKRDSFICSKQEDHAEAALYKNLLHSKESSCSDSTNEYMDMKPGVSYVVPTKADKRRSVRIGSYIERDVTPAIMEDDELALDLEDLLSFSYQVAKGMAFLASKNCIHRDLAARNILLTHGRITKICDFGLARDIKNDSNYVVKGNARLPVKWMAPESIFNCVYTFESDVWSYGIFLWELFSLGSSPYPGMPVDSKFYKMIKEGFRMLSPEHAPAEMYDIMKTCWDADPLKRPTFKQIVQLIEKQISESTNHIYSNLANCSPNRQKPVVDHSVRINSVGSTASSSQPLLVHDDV
Method: as §1, §2, §3
c-Kit biochemical activity was assessed using AlphaScreen™ (Perkin Elmer) technology, described above. Test compounds, ATP, biotinylated poly(Glu, Tyr) and c-Kit kinase were combined in a volume of 20 μL in a 384-well white, medium binding microtiter plate (Greiner). Reaction mixtures were incubated for 1 hr at ambient temperature. […] After 16 hr incubation at ambient temperature plates were read using an AlphaQuest reader (Perkin Elmer).

[4] = target: T3, KDR (baculovirus expressed human KDR kinase domain D807-V1356) (Homo sapiens, UniProt P35968); assay: KDR Luciferase-Coupled Chemiluminescent Kinase assay (LCCA); details: 3 μM ATP, 5 nM KDR
T3 construct: human KDR kinase domain D807-V1356; made in house
T3 sequence (P35968 807-1356): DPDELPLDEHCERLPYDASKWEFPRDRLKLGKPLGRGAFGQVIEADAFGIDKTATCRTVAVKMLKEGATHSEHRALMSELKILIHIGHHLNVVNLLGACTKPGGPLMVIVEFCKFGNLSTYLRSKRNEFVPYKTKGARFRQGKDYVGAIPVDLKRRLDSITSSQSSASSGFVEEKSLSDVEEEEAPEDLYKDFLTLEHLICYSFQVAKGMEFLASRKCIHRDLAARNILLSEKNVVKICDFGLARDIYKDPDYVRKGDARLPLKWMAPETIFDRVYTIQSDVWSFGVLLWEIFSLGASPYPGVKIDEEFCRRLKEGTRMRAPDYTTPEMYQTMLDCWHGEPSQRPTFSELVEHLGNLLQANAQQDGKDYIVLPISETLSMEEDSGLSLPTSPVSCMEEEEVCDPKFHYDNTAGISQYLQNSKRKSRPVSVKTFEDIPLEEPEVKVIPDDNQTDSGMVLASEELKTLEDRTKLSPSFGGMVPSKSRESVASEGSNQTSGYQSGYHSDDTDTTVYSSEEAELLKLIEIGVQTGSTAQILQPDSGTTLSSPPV
Method: as §1, §2, §3
as §4, with “KDR biochemical” for “Biochemical”, “activity” for “activity for flt-3”, “4” for “3”

Measured: pIC50

Sequence of c-Met (baculovirus expressed human c-Met kinase domain P948-S1343) (P08581 1078-1345 limits assumed): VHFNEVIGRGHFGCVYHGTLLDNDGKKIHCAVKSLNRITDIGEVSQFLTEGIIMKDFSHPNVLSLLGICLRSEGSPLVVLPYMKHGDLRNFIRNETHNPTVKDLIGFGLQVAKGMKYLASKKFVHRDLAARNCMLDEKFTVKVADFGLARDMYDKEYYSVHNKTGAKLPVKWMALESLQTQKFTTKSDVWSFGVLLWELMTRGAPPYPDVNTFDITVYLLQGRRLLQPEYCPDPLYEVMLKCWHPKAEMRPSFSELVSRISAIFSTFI

COc1cc2c(Oc3ccc(NC(=O)C(=O)NCCc4ccc(F)cc4)cc3F)ccnc2cc1OCCCN1CCOCC1 [Entry 1, N-[3-fluoro-4-({6-(methyloxy)-7-[(3-morpholin-4-ylpropyl)oxy]quinolin-4-yl}oxy)phenyl]-N′-[2-(4-fluorophenyl)ethyl]ethanediamide]
> 7.30: all assays above
